Experimental findings from ChEMBL document CHEMBL1201862, “PubChem BioAssay data set” (2004) are described below.

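Protocol summary: plate cells (96-well), add compound at 5 concentrations, incubate 48 h, interpolate endpoints linearly. At the GI50, growth is halved.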 The source made the active and inactive calls. No stated cut-off is given here; in the data, active = GI50 up to about 1.1 µM and inactive = higher.

What all share (experiment): NCI tumour cell line growth inhibition, 48 h
Test [1] relates to 786-0.
Test [2] deals with HCT-15.
Test [3] has as its system HL-60.
Test [4] has as its system HOP-92.
The test system of test [5] is HT-29.
Test [6] deals with M14.
Test [7] relates to MCF7.
Test [8] relates to MDA-MB-231.
Test [9] has as its system MDA-MB-435.
Test [10] concerns NCI-H226.
In test [11] the test system is NCI-H23.
In test [12] the test system is NCI-H522.
Test [13] relates to NCI/ADR-RES.
Test [14] has as its system OVCAR-4.
Test [15] relates to PC-3.
Test [16] has as its system SK-MEL-2.
The test system of test [17] is SN12C.
The subject of test [18] is SR.
The subject of test [19] is SW-620.

Turning to `C=C1[C@H](OCC(C)C)[C@@H](O)[C@@H](OC(=O)c2cccnc2)C(C)(C)/C=C/[C@H](C)[C@H](OC(C)=O)[C@@]2(O)C[C@@](C)(OC(C)=O)[C@H](OC(=O)c3ccccc3)[C@@H]2[C@H]1OC(C)=O`, the GI50 in test [1] is 1.67 µM (inactive); in [2], 1.16 µM; in test [3] it was 0.0695 µM (active); in test [4], 0.723 µM (active); in test [5], 0.0662 µM (active); in test [6], 0.977 µM (active). The GI50 in [7] was 1.8 µM (inactive); in test [8], > 2.54 µM (inactive); in test [9] it was 0.167 µM (active); in test [10] it was 1.39 µM (inactive); in [11], 1.95 µM (inactive); in [12], 0.944 µM (active). Also, the GI50 in test [13] is 1.29 µM (inactive); in [14] it was 1.9 µM (inactive); in test [15] it was 1.66 µM (inactive); in test [16], > 2.13 µM (inactive); in test [17] it was > 3.1 µM (inactive); in [18] it was 1.16 µM (inactive). In addition, the GI50 in test [19] was 0.502 µM (active).
Turning to `Nc1nc(-c2cccnc2)cc(-c2cc(-c3cccnc3)nc(N)n2)n1`, the GI50 was > 100 µM (inactive) in test [1]; above 100 µM in test [2]; > 100 µM (inactive) in test [3]; > 100 µM (inactive) in test [4]; > 100 µM (inactive) in test [5]; > 100 µM (inactive) in test [6]. Further, the GI50 is > 100 µM (inactive) in test [7]; > 100 µM (inactive) in [8]; 50.1 µM (inactive) in test [9]; > 100 µM (inactive) in test [10]; > 100 µM (inactive) in test [11]; > 100 µM (inactive) in test [12]. Moreover, the GI50 is > 100 µM (inactive) in [13]; > 100 µM (inactive) in [14]; > 100 µM (inactive) in test [15]; > 100 µM (inactive) in test [16]; > 100 µM (inactive) in test [17]; 55.8 µM (inactive) in [18]. Further, the GI50 in test [19] was > 100 µM (inactive).
Consider `Cc1ccc(S(=O)(=O)CC2(Br)CCc3ccccc3C2=O)cc1` (configuration not stated), for which the GI50 in test [1] is 42.9 µM (inactive); in test [2], 19.8 µM; in [3], 17.3 µM (inactive); in test [4], 34.4 µM (inactive); in test [5] it was 20.8 µM (inactive); in [6], 45.4 µM (inactive). Moreover, the GI50 is 24.5 µM (inactive) in [7]; 28 µM (inactive) in test [8]; 16.5 µM (inactive) in test [9]; 41.8 µM (inactive) in test [10]; 33.6 µM (inactive) in test [11]; 15.6 µM (inactive) in [12]. The GI50 was 48.9 µM (inactive) in [13]; 27.7 µM (inactive) in test [14]; 42.4 µM (inactive) in test [15]; 21.4 µM (inactive) in test [16]; 30.6 µM (inactive) in test [17]; 1.38 µM (inactive) in test [18]. Besides, in [19], the GI50 is 18 µM (inactive).
Consider `NC(=O)c1cc2cc(Cl)cc(Cl)c2o/c1=N\c1ccc(F)cc1`, for which the GI50 in test [1] is 12.2 µM (inactive); in test [2] it was 17.3 µM; in [3], 64.1 µM (inactive); in test [4], 31.9 µM (inactive); in test [5], 29.6 µM (inactive); in test [6], 20.3 µM (inactive). Moreover, the GI50 in [7] is 19.8 µM (inactive); in test [8], 17.5 µM (inactive); in [9] it was 20 µM (inactive); in test [10], 18.6 µM (inactive); in [11] it was 14.7 µM (inactive); in test [12] it was 17.7 µM (inactive). For the same compound, the GI50 in [13] was 16 µM (inactive); in test [14], 23.8 µM (inactive); in test [15] it was 19.1 µM (inactive); in test [16], 16.3 µM (inactive); in test [17], 16.7 µM (inactive); in test [18], 4.08 µM (inactive). Besides, the GI50 in [19] was 30.3 µM (inactive).
For the compound `CCc1nc(N)nc(N)c1-c1ccc2c(c1)nnn2CCc1ccccc1`, the GI50 was 5.89 µM (inactive) in [1]; 3.09 µM in test [2]; 3.02 µM (inactive) in test [3]; 38.4 µM (inactive) in test [4]; 3.53 µM (inactive) in test [5]; 4.66 µM (inactive) in [6]. Besides, the GI50 in test [7] was 21.1 µM (inactive); in [8], 26.1 µM (inactive); in test [9], 6.52 µM (inactive); in [10], 38.6 µM (inactive); in [11], 12.6 µM (inactive); in [12], 5.98 µM (inactive). Moreover, the GI50 was 13.7 µM (inactive) in [13]; 20.8 µM (inactive) in test [14]; 4.63 µM (inactive) in [15]; 28.2 µM (inactive) in test [16]; 22.5 µM (inactive) in test [17]; 5.18 µM (inactive) in [18]. In addition, the GI50 in [19] is 4.92 µM (inactive).
In the case of `CC(C)=CCCC(C)CCOS(=O)C(F)(F)F` (configuration not stated), the GI50 in test [1] was > 100 µM (inactive); in test [2], 2.49 µM; in test [3], 2.88 µM (inactive); in test [4], 18.7 µM (inactive); in test [5], 5.12 µM (inactive); in test [6], 1.35 µM (inactive). Moreover, the GI50 in test [7] was 34.7 µM (inactive); in [8], 16.6 µM (inactive); in test [9], 4.18 µM (inactive); in [10] it was 20 µM (inactive); in test [11], 2.58 µM (inactive); in [12], 1.71 µM (inactive). In addition, the GI50 in [13] was 4.16 µM (inactive); in test [14], 6.59 µM (inactive); in test [15], 18 µM (inactive); in test [16] it was 16.9 µM (inactive); in test [17] it was 7.93 µM (inactive); in test [18], 1.92 µM (inactive). Moreover, in [19], the GI50 was 3.29 µM (inactive).
Consider `O=C1C(O)=C(C(CCc2ccccc2)C2=C(O)C(=O)c3ccccc3C2=O)C(=O)c2ccccc21`, for which the GI50 in test [1] is > 100 µM (inactive); in test [2], 40.9 µM; in [3], 1.1 µM (active); in [4], 40 µM (inactive); in test [5], 18.8 µM (inactive); in [6] it was 11.5 µM (inactive). Besides, the GI50 is 40.2 µM (inactive) in test [7]; 66.8 µM (inactive) in test [8]; 13.9 µM (inactive) in test [9]; > 100 µM (inactive) in test [10]; 3.65 µM (inactive) in test [11]; 23.8 µM (inactive) in test [12]. For the same compound, the GI50 in test [13] is > 100 µM (inactive); in [14], 67.9 µM (inactive); in test [15], 68.7 µM (inactive); in [16] it was 35.5 µM (inactive); in test [17], 56 µM (inactive); in test [18], 16.9 µM (inactive). Further, the GI50 in [19] was 47.5 µM (inactive).
On to `CCOC(=O)C1C2C1C1C(C(=O)OCC)C21` (configuration not stated), for which the GI50 in test [1] was > 100 µM (inactive); in test [2], above 100 µM; in test [3], 63.8 µM (inactive); in test [4], > 100 µM (inactive); in [5], 57.5 µM (inactive); in test [6], > 100 µM (inactive). Besides, the GI50 in [7] is 51.3 µM (inactive); in test [8], > 100 µM (inactive); in test [9], > 100 µM (inactive); in test [10] it was > 100 µM (inactive); in test [11] it was > 100 µM (inactive); in test [12] it was > 100 µM (inactive). Moreover, the GI50 in test [13] was > 100 µM (inactive); in test [14], > 100 µM (inactive); in test [15], > 100 µM (inactive); in test [16], > 100 µM (inactive); in [17], > 100 µM (inactive); in test [18], 52 µM (inactive). The GI50 in test [19] was > 100 µM (inactive).
